In ChEMBL document CHEMBL1201862, “PubChem BioAssay data set” (2004):
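Interpolation was linear, between the two tested concentrations surrounding the appropriate level; five concentrations were tested over 48 hours in 96-well plates. Here, GI50 denotes the concentration required for 50% inhibition of growth.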 Activity calls are given as the source filed them. No stated cut-off is given here; in the data, active = GI50 up to about 1.1 µM and inactive = higher.

Columns and labels:
Test in all cases: DTP human tumour cell line panel, 48 h
[1] = test system: NCI-H522
[2] = test system: M14
[3] = test system: UACC-257
[4] = test system: LXFL 529
[5] = test system: CAKI-1
[6] = test system: SF-268
[7] = test system: K562
[8] = test system: SK-MEL-28
[9] = test system: SW-620
[10] = test system: MDA-MB-231
[11] = test system: Hs-578T
[12] = test system: A549
[13] = test system: SR
[14] = test system: OVCAR-5
[15] = test system: PC-3
[16] = test system: SK-MEL-5
[17] = test system: IGROV-1
[18] = test system: MCF7
[19] = test system: HOP-62
[20] = test system: HCC 2998

| Compound | GI50 [1] | GI50 [2] | GI50 [3] | GI50 [4] | GI50 [5] | GI50 [6] | GI50 [7] | GI50 [8] | GI50 [9] | GI50 [10] | GI50 [11] | GI50 [12] | GI50 [13] | GI50 [14] | GI50 [15] | GI50 [16] | GI50 [17] | GI50 [18] | GI50 [19] | GI50 [20] |
| --- | --- | --- | --- | --- | --- | --- | --- | --- | --- | --- | --- | --- | --- | --- | --- | --- | --- | --- | --- | --- |
| COc1cc(C(=O)NC2CCc3cc(OC)c(OC)c(OC)c3-c3ccc(OC)c(=O)cc32)cc(OC)c1OC (stereo unspecified) | 0.0234 µM (active) | 0.202 µM (active) | 0.0938 µM (active) | 0.0272 µM (active) | 1.15 µM (inactive) | 0.0828 µM (active) | 0.0403 µM (active) | 0.192 µM (active) | 0.0521 µM (active) | 0.0306 µM (active) | 0.025 µM (active) | 0.431 µM (active) | 0.0249 µM (active) | 2.75 µM (inactive) | 0.0807 µM (active) | 0.0553 µM (active) | 0.0891 µM (active) | < 0.0176 µM (active) | 0.471 µM (active) | 0.0776 µM (active) |
| O=C1OC(CC(=O)c2ccccc2Cl)C(Cl)=C1Cl (stereo unspecified) | > 100 µM (inactive) | > 100 µM (inactive) | > 100 µM (inactive) | > 100 µM (inactive) | > 100 µM (inactive) | > 100 µM (inactive) | > 100 µM (inactive) | > 100 µM (inactive) | > 100 µM (inactive) |  |  | > 100 µM (inactive) | > 100 µM (inactive) | > 100 µM (inactive) |  | > 100 µM (inactive) | > 100 µM (inactive) |  | > 100 µM (inactive) | > 100 µM (inactive) |
| O=C1C(CO)=C(CO)C(=O)c2c(O)ccc(O)c21 | 0.0897 µM (active) | 0.143 µM (active) | 0.349 µM (active) | 0.177 µM (active) | 0.387 µM (active) | 0.649 µM (active) | 0.0877 µM (active) | 0.391 µM (active) | 0.082 µM (active) | 1.35 µM (inactive) | 1.45 µM (inactive) | 1.64 µM (inactive) | 0.0902 µM (active) | 2.08 µM (inactive) | 1.97 µM (inactive) | 0.394 µM (active) | 1.68 µM (inactive) | 0.118 µM (active) | 1.04 µM (active) | 2.06 µM (inactive) |
| COc1cc2[nH]c3c(c2cc1OC)CCN[C@@]31CC[C@@]2(CC3c4c(cc(OC)c(O)c42)CCN3C)C[C@@H]1OC (stereo partly specified) | 29.2 µM (inactive) | 18 µM (inactive) | 17.8 µM (inactive) | 40.1 µM (inactive) | 35.6 µM (inactive) | 47.1 µM (inactive) | 20.7 µM (inactive) | 17.9 µM (inactive) | 32.8 µM (inactive) | 28.1 µM (inactive) | 19.7 µM (inactive) | 63 µM (inactive) | 12.5 µM (inactive) | > 73.3 µM (inactive) | 48.6 µM (inactive) | 16.5 µM (inactive) | 66.1 µM (inactive) | > 68.2 µM (inactive) | 62.8 µM (inactive) | 31.9 µM (inactive) |
| CN(C)c1ccc(/C=C2\C[N+](C)(C)C/C(=C\c3ccc(N(C)C)cc3)C2=O)cc1 | 9.66 µM (inactive) | 20.3 µM (inactive) | 12.1 µM (inactive) | 7.55 µM (inactive) | > 100 µM (inactive) | 19.2 µM (inactive) | 7.98 µM (inactive) | 15.3 µM (inactive) | 15.3 µM (inactive) | 17.9 µM (inactive) | 50 µM (inactive) | 20.7 µM (inactive) | 8.09 µM (inactive) | 38.9 µM (inactive) |  | 11.6 µM (inactive) | 8.57 µM (inactive) | 5.4 µM (inactive) | 42.8 µM (inactive) | 8.18 µM (inactive) |
| CC(=O)OC1=CC(n2cc(F)c(=O)[nH]c2=O)OC(C)C1=O (stereo unspecified) | > 95.5 µM (inactive) | 61.2 µM (inactive) | 57.1 µM (inactive) | > 100 µM (inactive) | > 52.2 µM (inactive) | 81.5 µM (inactive) | 57 µM (inactive) | 17.7 µM (inactive) | 59 µM (inactive) | > 88.7 µM (inactive) | > 88.3 µM (inactive) | 7.29 µM (inactive) | 26.1 µM (inactive) | 49.8 µM (inactive) | 53 µM (inactive) | 13.2 µM (inactive) | 30.5 µM (inactive) | 4.28 µM (inactive) | 23.7 µM (inactive) | 5.26 µM (inactive) |
| CC1NOC(=O)C1/N=N/c1cccc(Cl)c1 (stereo unspecified) | 23.5 µM (inactive) | 62.2 µM (inactive) | 29 µM (inactive) | 27.9 µM (inactive) | 38.6 µM (inactive) | 23.1 µM (inactive) | 25.6 µM (inactive) | 43.9 µM (inactive) | 10 µM (inactive) |  |  | 33.2 µM (inactive) | 21.2 µM (inactive) | 47.5 µM (inactive) |  | 19.9 µM (inactive) | 40.8 µM (inactive) |  | 51.3 µM (inactive) | > 100 µM (inactive) |
